# Assay results: patent publication US8710062B2, “Piperazinedione compounds” (Taipei Medical University, priority 2011, dated 2014)
# Structures can show the parent of a compound that is named as a salt.
# What was measured:
# ABL1 = ABL1 (Mus musculus, UniProt P00520); assay: Kinome inhibition assay; format: biochemical
# Description: (§1) Kinome inhibition studies were conducted following the procedures described in literature. […] In general, each purified kinase was incubated with its substrate in buffer (MOPS buffer or HEPES buffer) containing an essential metal co-enzyme or cofactor, antioxidant, and ATP (gamma-P^32 radio-labeled ATP or cold ATP). Compound 2 was co-incubated with the kinase solution thus obtained for 0.5-1 hr at 37° C. The reaction was stopped by boiling the reaction solution with an extra SDS solution. The phosphorylation level of the substrate was monitored ether by quantification of the radio-labeled substrate or by quantification of phosphor-substrate specific antibodies. In each study, a reference standard was run as an integral part to ensure the validity of the experimental results obtained. The table below includes the IC50 values obtained from this experiment.
# AKT1 (PRKBA) = AKT1 (PRKBA) (Homo sapiens, UniProt P31749); assay: Kinome inhibition assay; format: biochemical
# Description: as §1
# AURKA (Aurora-A) = AURKA (Aurora-A) (Homo sapiens, UniProt O14965); assay: Kinome inhibition assay; format: biochemical
# Description: as §1
# CAMK2D (KCC2D) = CAMK2D (KCC2D) (Homo sapiens, UniProt Q13557); assay: Kinome inhibition assay; format: biochemical
# Description: as §1
# CDC42BPB = CDC42BPB (Homo sapiens, UniProt Q9Y5S2); assay: Kinome inhibition assay; format: biochemical
# Sequence of CDC42BPB (Q9Y5S2 whole entry): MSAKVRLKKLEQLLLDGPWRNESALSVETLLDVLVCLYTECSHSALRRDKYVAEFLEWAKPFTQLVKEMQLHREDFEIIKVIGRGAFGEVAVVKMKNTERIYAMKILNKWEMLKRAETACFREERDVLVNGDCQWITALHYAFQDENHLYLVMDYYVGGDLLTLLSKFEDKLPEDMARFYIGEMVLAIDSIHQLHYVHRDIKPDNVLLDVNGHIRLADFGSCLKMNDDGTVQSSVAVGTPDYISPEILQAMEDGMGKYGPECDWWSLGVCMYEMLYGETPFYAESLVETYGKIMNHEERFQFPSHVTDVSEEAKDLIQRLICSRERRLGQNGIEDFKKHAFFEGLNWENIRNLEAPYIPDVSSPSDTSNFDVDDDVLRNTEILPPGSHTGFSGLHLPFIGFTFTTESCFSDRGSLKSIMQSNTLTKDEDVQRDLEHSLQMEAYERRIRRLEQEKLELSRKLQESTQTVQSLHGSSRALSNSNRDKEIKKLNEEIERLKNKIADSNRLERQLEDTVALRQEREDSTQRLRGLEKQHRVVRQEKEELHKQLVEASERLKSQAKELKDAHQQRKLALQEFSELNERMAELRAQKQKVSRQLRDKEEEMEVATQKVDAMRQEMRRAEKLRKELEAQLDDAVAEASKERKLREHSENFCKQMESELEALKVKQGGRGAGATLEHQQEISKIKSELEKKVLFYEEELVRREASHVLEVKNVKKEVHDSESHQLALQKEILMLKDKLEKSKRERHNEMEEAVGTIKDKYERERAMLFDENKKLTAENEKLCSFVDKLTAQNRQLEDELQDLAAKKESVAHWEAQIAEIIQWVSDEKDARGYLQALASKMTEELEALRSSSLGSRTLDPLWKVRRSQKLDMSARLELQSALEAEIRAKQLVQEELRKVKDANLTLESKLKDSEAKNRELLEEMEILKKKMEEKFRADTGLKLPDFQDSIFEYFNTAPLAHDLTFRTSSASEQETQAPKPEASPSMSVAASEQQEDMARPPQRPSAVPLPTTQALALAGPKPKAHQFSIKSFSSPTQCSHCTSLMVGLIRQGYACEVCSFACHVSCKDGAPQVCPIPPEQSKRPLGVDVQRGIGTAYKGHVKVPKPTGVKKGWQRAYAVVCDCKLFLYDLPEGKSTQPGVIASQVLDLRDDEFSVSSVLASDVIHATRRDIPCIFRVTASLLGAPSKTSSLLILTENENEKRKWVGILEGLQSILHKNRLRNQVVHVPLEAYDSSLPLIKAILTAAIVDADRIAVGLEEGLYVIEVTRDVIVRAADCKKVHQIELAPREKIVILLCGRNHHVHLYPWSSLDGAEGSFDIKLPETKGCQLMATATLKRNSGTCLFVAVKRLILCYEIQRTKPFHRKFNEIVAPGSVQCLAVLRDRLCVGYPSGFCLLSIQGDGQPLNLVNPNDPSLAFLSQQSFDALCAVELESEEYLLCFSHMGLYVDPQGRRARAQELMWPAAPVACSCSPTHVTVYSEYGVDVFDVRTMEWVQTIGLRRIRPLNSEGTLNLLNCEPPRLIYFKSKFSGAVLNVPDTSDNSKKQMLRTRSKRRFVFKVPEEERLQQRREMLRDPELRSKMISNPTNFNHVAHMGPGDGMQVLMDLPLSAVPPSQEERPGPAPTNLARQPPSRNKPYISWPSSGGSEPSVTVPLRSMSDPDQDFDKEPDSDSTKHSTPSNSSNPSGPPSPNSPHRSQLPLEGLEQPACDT
# Description: as §1
# ERBB2 (HER2) = ERBB2 (HER2) (Homo sapiens, UniProt P04626); assay: Kinome inhibition assay; format: biochemical
# Description: as §1
# FER (TYK3) = FER (TYK3) (Homo sapiens, UniProt P16591); assay: Kinome inhibition assay; format: biochemical
# Sequence of FER (TYK3) (P16591 whole entry): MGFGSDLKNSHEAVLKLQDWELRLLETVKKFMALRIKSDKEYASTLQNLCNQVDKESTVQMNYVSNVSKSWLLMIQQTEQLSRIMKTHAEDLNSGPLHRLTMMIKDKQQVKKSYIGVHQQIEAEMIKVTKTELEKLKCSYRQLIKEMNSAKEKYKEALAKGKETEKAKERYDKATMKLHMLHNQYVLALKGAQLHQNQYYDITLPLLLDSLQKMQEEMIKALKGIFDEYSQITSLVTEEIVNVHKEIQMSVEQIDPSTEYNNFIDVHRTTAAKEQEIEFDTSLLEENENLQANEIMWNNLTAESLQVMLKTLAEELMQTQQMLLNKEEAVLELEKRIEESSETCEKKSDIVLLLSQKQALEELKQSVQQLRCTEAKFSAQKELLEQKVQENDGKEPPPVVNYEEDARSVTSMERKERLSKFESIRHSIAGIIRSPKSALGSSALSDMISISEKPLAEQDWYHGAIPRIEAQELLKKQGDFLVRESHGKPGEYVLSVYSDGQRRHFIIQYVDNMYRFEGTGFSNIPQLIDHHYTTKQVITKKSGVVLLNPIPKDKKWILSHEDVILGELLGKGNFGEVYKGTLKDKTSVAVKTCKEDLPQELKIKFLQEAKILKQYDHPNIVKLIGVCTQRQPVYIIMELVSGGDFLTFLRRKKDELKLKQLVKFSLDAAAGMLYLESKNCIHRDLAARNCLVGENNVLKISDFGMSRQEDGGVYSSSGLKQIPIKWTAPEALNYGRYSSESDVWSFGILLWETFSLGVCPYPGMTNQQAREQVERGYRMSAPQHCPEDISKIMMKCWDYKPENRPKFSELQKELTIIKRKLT
# Description: as §1
# GSK3B = GSK3B (Homo sapiens, UniProt P49841); assay: Kinome inhibition assay; format: biochemical
# Description: as §1
# Insulin Receptor = Insulin Receptor (Homo sapiens, UniProt P06213); assay: Kinome inhibition assay; format: biochemical
# Description: as §1
# LMK1 = LMK1 (Homo sapiens, UniProt P53667); assay: Kinome inhibition assay; format: biochemical
# Sequence of LMK1 (P53667 whole entry): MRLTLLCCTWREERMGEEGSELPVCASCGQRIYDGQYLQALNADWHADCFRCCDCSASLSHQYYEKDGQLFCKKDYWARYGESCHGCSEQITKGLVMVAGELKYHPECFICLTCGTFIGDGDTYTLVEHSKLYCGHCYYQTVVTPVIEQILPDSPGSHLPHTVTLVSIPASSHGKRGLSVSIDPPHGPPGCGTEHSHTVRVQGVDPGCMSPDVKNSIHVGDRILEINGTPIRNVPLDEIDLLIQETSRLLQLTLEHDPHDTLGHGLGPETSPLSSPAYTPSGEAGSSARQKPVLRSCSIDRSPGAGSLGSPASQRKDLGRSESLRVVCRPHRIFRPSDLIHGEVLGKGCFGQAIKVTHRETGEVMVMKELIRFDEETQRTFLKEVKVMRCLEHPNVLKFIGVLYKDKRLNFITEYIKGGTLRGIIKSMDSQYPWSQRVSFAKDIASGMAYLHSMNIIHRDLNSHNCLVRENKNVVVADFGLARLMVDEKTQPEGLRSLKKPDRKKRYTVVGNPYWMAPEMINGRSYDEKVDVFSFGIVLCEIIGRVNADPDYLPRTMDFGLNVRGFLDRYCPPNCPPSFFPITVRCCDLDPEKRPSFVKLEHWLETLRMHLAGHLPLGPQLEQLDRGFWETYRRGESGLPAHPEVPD
# Description: as §1
# MAPK8 (JNK1) = MAPK8 (JNK1) (Homo sapiens, UniProt P45983); assay: Kinome inhibition assay; format: biochemical
# Sequence of MAPK8 (JNK1) (P45983 whole entry): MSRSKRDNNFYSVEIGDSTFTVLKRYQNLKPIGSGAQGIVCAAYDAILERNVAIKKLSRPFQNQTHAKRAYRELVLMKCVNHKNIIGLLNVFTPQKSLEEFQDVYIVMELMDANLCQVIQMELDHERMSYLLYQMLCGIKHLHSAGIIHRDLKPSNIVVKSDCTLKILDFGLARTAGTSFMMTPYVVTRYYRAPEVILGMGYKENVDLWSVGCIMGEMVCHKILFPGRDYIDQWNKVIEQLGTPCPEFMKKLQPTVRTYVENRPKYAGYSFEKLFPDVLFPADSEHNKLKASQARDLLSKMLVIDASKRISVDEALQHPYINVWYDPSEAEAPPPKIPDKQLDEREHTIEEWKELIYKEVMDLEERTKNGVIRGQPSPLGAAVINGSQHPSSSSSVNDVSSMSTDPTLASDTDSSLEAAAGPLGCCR
# Description: as §1
# MET (HGFR) = MET (HGFR) (Homo sapiens, UniProt P08581); assay: Kinome inhibition assay; format: biochemical
# Description: as §1
# NTRK1 (TRKA) = NTRK1 (TRKA) (Homo sapiens, UniProt P04629); assay: Kinome inhibition assay; format: biochemical
# Sequence of NTRK1 (TRKA) (P04629 33-796): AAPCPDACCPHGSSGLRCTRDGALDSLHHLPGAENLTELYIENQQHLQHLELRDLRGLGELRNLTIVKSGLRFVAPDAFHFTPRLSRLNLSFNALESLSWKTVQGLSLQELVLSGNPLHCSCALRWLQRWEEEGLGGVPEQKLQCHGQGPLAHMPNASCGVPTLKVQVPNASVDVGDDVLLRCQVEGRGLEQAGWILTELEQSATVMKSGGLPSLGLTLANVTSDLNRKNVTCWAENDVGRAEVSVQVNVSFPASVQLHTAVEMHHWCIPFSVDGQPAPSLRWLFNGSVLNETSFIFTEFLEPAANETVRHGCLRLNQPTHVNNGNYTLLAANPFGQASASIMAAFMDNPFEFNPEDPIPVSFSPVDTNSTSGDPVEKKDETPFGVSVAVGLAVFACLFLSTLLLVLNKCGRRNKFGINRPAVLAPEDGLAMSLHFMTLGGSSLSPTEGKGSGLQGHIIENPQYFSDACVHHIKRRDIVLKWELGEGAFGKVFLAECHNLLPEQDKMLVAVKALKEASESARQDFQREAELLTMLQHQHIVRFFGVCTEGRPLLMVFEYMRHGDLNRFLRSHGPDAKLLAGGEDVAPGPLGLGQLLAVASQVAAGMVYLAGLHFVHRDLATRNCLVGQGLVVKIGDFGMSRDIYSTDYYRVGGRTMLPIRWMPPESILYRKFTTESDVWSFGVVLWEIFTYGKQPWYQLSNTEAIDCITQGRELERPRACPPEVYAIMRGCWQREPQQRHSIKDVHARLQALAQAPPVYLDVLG
# Description: as §1
# PDK1 = PDK1 (Homo sapiens, UniProt O15530); assay: Kinome inhibition assay; format: biochemical
# Sequence of PDK1 (O15530 whole entry): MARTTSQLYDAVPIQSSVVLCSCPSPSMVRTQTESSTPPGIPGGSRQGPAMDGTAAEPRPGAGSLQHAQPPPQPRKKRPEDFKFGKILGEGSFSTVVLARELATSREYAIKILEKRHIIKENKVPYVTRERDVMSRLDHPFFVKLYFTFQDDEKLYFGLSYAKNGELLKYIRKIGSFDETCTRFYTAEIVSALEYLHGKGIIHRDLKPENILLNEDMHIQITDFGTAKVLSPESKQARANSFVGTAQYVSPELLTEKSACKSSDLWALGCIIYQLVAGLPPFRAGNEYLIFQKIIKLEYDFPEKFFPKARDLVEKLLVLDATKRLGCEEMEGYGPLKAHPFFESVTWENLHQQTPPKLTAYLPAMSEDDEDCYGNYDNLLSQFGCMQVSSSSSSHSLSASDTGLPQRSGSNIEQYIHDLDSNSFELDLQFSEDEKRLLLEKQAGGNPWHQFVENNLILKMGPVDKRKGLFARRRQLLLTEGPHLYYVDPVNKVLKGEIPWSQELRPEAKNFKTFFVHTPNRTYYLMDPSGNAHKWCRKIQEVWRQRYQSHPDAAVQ
# Description: as §1
# PIM1 = PIM1 (Homo sapiens, UniProt P11309); assay: Kinome inhibition assay; format: biochemical
# Description: as §1
# RET = RET (Homo sapiens, UniProt P07949); assay: Kinome inhibition assay; format: biochemical
# Description: as §1
# RP56KA5 (MSK1) = RP56KA5 (MSK1) (Homo sapiens, UniProt O75582); assay: Kinome inhibition assay; format: biochemical
# Description: as §1
# SGK1 = SGK1 (Homo sapiens, UniProt O00141); assay: Kinome inhibition assay; format: biochemical
# Description: as §1
# SGK2 = SGK2 (Homo sapiens, UniProt Q9HBY8); assay: Kinome inhibition assay; format: biochemical
# Description: as §1
# SRPK1 = SRPK1 (Homo sapiens, UniProt Q96SB4); assay: Kinome inhibition assay; format: biochemical
# Description: as §1
# [1] = system: human HL-60 promyelocytic leukemia xenograft; assay: HL-60 xenograft in SCID mice; settings: for median TTE (time to endpoint): control median TTE 11.0 days
# Description: Nude-athymic mice were maintained in accordance with the Institutional Animal Care and Use Committee procedures and guidelines.
# The medium was supplemented with 10% heat-inactivated fetal bovine serum and 2 mM glutamine.
# The human HL-60 promyelocytic leukemia cells used for implantation were harvested during log phase growth and resuspended in phosphate-buffered saline at 8.0×10^7 cells/mL. Each mouse was injected s.c. in the right flank with 1.6×10^7 cells (0.2 mL cell suspension). Tumors were monitored twice weekly and then daily as their volumes approached 100 mm^3. […] Tumor size, in mm3, was calculated as: Tumor Volume=w2×l, where w=width and l=length in mm of the tumor. Tumor weight can be estimated with the assumption that 1 mg is equivalent to 1 mm3 of tumor volume.
# The agent was given dose at 5 mg/kg once every day (qd) and every other day (q2d) to endpoint. Treatments began on Day 1 (D1) in groups of male SCID mice (n=6) bearing established (˜444.4 mm3) subcutaneous tumors. […] Logrank tests determine significance of the differences between TTE values for drug-treated and control mice, at P≦0.05.
# [2] = @ 10 μM, read-out: Single dose inhibition
# [3] = @ 30 μM, read-out: Single dose inhibition
# [4] = 5 mg/kg p.o. every other day (q2d)
smiles,measurement,setting,value
"O=c1[nH]/c(=C\c2ccc(OCc3ccncc3)cn2)c(=O)[nH]/c1=C\c1ccccc1 [Compound 2, 3-benzylidene-6-((5-(pyridin-4-ylmethoxy)pyridin-2-yl)methylene)piperazine-2,5-dione methanesulfonic acid salt]",inhibition at 10 µM,ABL1; [2],90%
same,IC50,"ABL1; ABL1, Mouse",3.17 µM
same,inhibition at 10 µM,AKT1 (PRKBA); [2],93%
same,IC50,"AKT1 (PRKBA); AKT1 (PRKBA), Human",3.93 µM
same,inhibition at 30 µM,AURKA (Aurora-A); [3],73%
same,IC50,"AURKA (Aurora-A); AURKA (Aurora-A), Human",13.7 µM
same,inhibition at 10 µM,CAMK2D (KCC2D); [2],70%
same,IC50,"CAMK2D (KCC2D); CAMK2D (KCC2D), Human",7.39 µM
same,inhibition at 10 µM,CDC42BPB; [2],52%
same,IC50,"CDC42BPB; CDC42BPB, Human",8.18 µM
same,inhibition at 10 µM,ERBB2 (HER2); [2],69%
same,IC50,"ERBB2 (HER2); ERBB2 (HER2), Human",5.56 µM
same,inhibition at 10 µM,FER (TYK3); [2],55%
same,IC50,"FER (TYK3); FER (TYK3), Human",7.23 µM
same,inhibition at 30 µM,GSK3B; [3],69%
same,IC50,"GSK3B; GSK3B, Human",10.9 µM
same,inhibition at 3 µM,"Insulin Receptor; @ 3 μM, read-out: Single dose inhibition",70%
same,IC50,"Insulin Receptor; Insulin Receptor, Human",1.83 µM
same,inhibition at 10 µM,LMK1; [2],68%
same,IC50,"LMK1; LMK1, Human",5.8 µM
same,inhibition at 10 µM,MAPK8 (JNK1); [2],74%
same,IC50,"MAPK8 (JNK1); MAPK8 (JNK1), Human",4.79 µM
same,inhibition at 30 µM,MET (HGFR); [3],79%
same,IC50,"MET (HGFR); MET (HGFR), Human",12.3 µM
same,inhibition at 30 µM,NTRK1 (TRKA); [3],66%
same,IC50,"NTRK1 (TRKA); NTRK1 (TRKA), Human",17.4 µM
same,inhibition at 10 µM,PDK1; [2],59%
same,IC50,"PDK1; PDK1, Human",8.18 µM
same,inhibition at 30 µM,PIM1; [3],98%
same,IC50,"PIM1; PIM1, Human",9.52 µM
same,inhibition at 10 µM,RET; [2],73%
same,IC50,"RET; RET, Human",4.89 µM
same,inhibition at 10 µM,RP56KA5 (MSK1); [2],53%
same,IC50,"RP56KA5 (MSK1); RP56KA5 (MSK1), Human",7.88 µM
same,inhibition at 10 µM,SGK1; [2],83%
same,IC50,"SGK1; SGK1, Human",2.92 µM
same,inhibition at 10 µM,SGK2; [2],78%
same,IC50,"SGK2; SGK2, Human",3.55 µM
same,inhibition at 10 µM,SRPK1; [2],61%
same,IC50,"SRPK1; SRPK1, Human",10.6 µM
same,% TGD (percent tumor growth delay),[1]; [4],120%
same,T−C,[1]; [4],13.2 days
same,median TTE (time to endpoint),[1]; [4],24.2 days
same,maximum BW loss,"[1]; 5 mg/kg p.o. every other day (q2d), on day 8",4.2%
same,% TGD (percent tumor growth delay),[1]; 5 mg/kg p.o. once a day (qd),29%
same,T−C,[1]; 5 mg/kg p.o. once a day (qd),3.2 days
same,median TTE (time to endpoint),[1]; 5 mg/kg p.o. once a day (qd),14.2 days
same,treatment related deaths,"[1]; 5 mg/kg p.o. once a day (qd), n=6",Two
same,maximum BW loss,"[1]; 5 mg/kg p.o. once a day (qd), on day 11",1.9%
